Laboratory results reported in patent US20210387966A1, “2-AMINO-N-HETEROARYL-NICOTINAMIDES AS NAV1.8 INHIBITORS” (Merck Sharp & Dohme Corp., priority 2018, published 2021).

Target: T1, human Nav1.8 channels (Homo sapiens, UniProt Q9Y5Y9)
T1 construct: expressed in transfected cells
Experiment: Nav1.8 Qube automated patch-clamp assay
Assay type: cell-based
Settings: human Nav1.8 stably expressed in HEK 293 cells; whole-cell voltage clamp, room temperature; resting or inactivated state not specified; read-out: IC50 values (nM) for Examples in the Nav1.8 Qube Assay
Outline: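 Whole-cell patch clamp at room temperature on HEK293 cells stably expressing human Nav1.8. A 1 Hz train of ten 20 ms pulses to 10 mV from −90 mV holding, with −67 mV repolarization, was applied; first- and tenth-pulse peak currents gave resting and inactivated-state IC50s by Hill fitting.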

T1 sequence (Q9Y5Y9 whole entry): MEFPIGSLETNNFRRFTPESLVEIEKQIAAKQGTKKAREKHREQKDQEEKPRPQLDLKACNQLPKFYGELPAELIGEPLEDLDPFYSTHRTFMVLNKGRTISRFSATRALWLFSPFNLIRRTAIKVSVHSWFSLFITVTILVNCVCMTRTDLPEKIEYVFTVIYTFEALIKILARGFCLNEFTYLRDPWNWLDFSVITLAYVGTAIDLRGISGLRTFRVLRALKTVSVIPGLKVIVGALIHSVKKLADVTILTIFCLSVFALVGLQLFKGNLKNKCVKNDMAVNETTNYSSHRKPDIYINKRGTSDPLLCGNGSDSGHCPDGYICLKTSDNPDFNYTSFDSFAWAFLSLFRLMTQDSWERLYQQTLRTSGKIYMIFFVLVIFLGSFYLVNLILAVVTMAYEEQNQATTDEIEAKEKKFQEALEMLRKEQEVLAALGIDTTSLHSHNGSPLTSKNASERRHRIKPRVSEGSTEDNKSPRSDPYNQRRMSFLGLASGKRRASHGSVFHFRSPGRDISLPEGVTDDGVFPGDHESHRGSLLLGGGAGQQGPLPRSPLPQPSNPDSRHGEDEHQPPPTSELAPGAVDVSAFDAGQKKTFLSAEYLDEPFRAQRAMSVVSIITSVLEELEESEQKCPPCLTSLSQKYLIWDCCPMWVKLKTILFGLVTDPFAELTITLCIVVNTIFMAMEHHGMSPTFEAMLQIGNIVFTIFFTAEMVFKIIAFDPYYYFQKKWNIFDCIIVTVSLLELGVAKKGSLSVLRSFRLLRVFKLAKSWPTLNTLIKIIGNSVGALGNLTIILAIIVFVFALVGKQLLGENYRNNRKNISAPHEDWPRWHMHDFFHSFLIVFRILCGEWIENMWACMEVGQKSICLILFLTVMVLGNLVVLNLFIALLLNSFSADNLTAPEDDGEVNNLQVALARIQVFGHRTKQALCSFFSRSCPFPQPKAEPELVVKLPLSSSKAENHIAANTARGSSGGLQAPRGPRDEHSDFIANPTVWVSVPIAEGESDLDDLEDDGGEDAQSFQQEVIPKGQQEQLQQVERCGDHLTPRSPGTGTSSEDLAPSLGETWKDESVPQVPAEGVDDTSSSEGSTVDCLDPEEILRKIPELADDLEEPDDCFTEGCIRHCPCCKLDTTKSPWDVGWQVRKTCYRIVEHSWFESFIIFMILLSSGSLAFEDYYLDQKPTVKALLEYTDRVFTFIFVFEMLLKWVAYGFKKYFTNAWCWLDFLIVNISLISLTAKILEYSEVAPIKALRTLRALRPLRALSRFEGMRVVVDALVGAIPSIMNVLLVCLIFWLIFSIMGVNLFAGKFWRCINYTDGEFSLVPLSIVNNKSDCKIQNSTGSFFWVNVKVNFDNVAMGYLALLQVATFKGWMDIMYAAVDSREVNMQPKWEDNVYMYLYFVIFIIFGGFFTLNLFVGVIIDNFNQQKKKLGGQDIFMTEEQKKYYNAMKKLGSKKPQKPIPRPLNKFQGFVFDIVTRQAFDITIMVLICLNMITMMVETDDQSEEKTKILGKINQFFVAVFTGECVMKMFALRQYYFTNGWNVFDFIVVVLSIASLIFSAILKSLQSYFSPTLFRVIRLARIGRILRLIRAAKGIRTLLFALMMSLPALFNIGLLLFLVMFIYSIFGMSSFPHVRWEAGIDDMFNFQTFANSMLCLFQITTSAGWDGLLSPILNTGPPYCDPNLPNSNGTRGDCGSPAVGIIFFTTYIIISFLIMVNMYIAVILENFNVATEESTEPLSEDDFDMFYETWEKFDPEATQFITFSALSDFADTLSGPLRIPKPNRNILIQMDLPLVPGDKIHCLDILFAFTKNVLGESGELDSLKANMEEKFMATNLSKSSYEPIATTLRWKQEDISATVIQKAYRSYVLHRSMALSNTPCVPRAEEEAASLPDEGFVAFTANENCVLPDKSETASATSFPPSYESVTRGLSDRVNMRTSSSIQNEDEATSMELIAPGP

Structure (SMILES)	IC50 [nM]
CC1(C)CN(c2ncc(C(F)(F)F)cc2C(=O)Nc2ccnc(S(N)(=O)=O)c2)CCO1 [Example 88, 2-(2,2-dimethylmorpholin-4-yl)-N-(2-sulfamoyl-4-pyridyl)-5-(trifluoromethyl)pyridine-3-carboxamide]	275
NS(=O)(=O)c1cc(NC(=O)c2cc(C(F)(F)F)cnc2N2CCc3cccc(C(F)(F)F)c3C2)ccn1 [Example 89, N-(2-sulfamoyl-4-pyridyl)-5-(trifluoromethyl)-2-[8-(trifluoromethyl)-3,4-dihydro-1H-isoquinolin-2-yl]pyridine-3-carboxamide]	275
NS(=O)(=O)c1cc(NC(=O)c2cc(C(F)(F)F)cnc2N2Cc3cccc(OC(F)(F)F)c3C2)ccn1 [Example 90, N-(2-sulfamoyl-4-pyridyl)-2-[4-(trifluoromethoxy)isoindolin-2-yl]-5-(trifluoromethyl)pyridine-3-carboxamide]	294
NS(=O)(=O)c1cc(NC(=O)c2cc(C(F)(F)F)cnc2N2CCOC(c3ccc(C(F)(F)F)cc3)C2)ccn1 (stereo not drawn) [Example 91, N-(2-sulfamoyl-4-pyridyl)-5-(trifluoromethyl)-2-[2-[4-(trifluoromethyl)phenyl]morpholin-4-yl]pyridine-3-carboxamide]	616
NS(=O)(=O)c1cc(NC(=O)c2cc(C(F)(F)F)cnc2N2CC(F)(F)C(F)(F)C2)ccn1 [Example 92, N-(2-sulfamoyl-4-pyridyl)-2-(3,3,4,4-tetrafluoropyrrolidin-1-yl)-5-(trifluoromethyl)pyridine-3-carboxamide]	659
NS(=O)(=O)c1cc(NC(=O)c2cc(C(F)(F)F)cnc2N2CCC(n3cccn3)C2)ccn1 (stereo not drawn) [Example 94, 2-(3-pyrazol-1-ylpyrrolidin-1-yl)-N-(2-sulfamoyl-4-pyridyl)-5-(trifluoromethyl)pyridine-3-carboxamide]	745
NS(=O)(=O)c1cc(NC(=O)c2cc(C(F)(F)F)cnc2N2CCCCC2c2ccc(F)cc2)ccn1 (stereo not drawn) [Example 95, 2-[2-(4-fluorophenyl)-1-piperidyl]-N-(2-sulfamoyl-4-pyridyl)-5-(trifluoromethyl)pyridine-3-carboxamide]	1420
NS(=O)(=O)c1cc(NC(=O)c2cc(C(F)(F)F)cnc2N2CCC3OCCC32)ccn1 (stereo not drawn) [Example 96, 2-(2,3,3,a,5,6,6a-hexahydrofuro[3,2-b]pyrrol-4-yl)-N-(2-sulfamoyl-4-pyridyl)-5-(trifluoromethyl)pyridine-3-carboxamide]	1620
NS(=O)(=O)c1cc(NC(=O)c2cc(C(F)(F)F)cnc2N2CCC(Oc3cccc(C(F)(F)F)c3)CC2)ccn1 [Example 98, N-(2-sulfamoyl-4-pyridyl)-5-(trifluoromethyl)-2-[4-[3-(trifluoromethyl)phenoxy]-1-piperidyl]pyridine-3-carboxamide]	2370
C[C@@H]1CN(c2ncc(C(F)(F)F)cc2C(=O)Nc2ccnc(S(N)(=O)=O)c2)C[C@@H](C(F)(F)F)O1 [Example 102, 2-((2R,6S)-2-methyl-6-(trifluoromethyl)morpholino)-N-(2-sulfamoylpyridin-4-yl)-5-(trifluoromethyl)nicotinamide]	27
C[C@H]1CN(c2ncc(C(F)(F)F)cc2C(=O)Nc2ccnc(S(N)(=O)=O)c2)C[C@H](C(F)(F)F)O1 [Example 103, 2-((2S,6R)-2-methyl-6-(trifluoromethyl)morpholino)-N-(2-sulfamoylpyridin-4-yl)-5-(trifluoromethyl)nicotinamide]	166
NS(=O)(=O)c1cc(NC(=O)c2cc(C(F)(F)F)cnc2N2CCCO[C@H](C(F)(F)F)C2)ccn1 [Example 104, (S)-N-(2-sulfamoylpyridin-4-yl)-5-(trifluoromethyl)-2-(2-(trifluoromethyl)-1,4-oxazepan-4-yl)nicotinamide]	56
NS(=O)(=O)c1cc(NC(=O)c2cc(C(F)(F)F)cnc2N2CCCO[C@@H](C(F)(F)F)C2)ccn1 [Example 105, (R)-N-(2-sulfamoylpyridin-4-yl)-5-(trifluoromethyl)-2-(2-(trifluoromethyl)-1,4-oxazepan-4-yl)nicotinamide]	696
CC1(C)CO[C@@H](C(F)(F)F)CN(c2ncc(C(F)(F)F)cc2C(=O)Nc2ccnc(S(N)(=O)=O)c2)C1 [Example 106, 2-[(2R)-6,6-dimethyl-2-(trifluoromethyl)-1,4-oxazepan-4-yl]-N-(2-sulfamoyl-4-pyridyl)-5-(trifluoromethyl)pyridine-3-carboxamide]	103
CC1(C)CN(c2ncc(C(F)(F)F)cc2C(=O)Nc2ccnc(S(N)(=O)=O)c2)CCCO1 [Example 107, 2-(2,2-dimethyl-1,4-oxazepan-4-yl)-N-(2-sulfamoyl-4-pyridyl)-5-(trifluoromethyl)pyridine-3-carboxamide]	139
C[C@H]1CCN(c2ncc(C(F)(F)F)cc2C(=O)Nc2ccnc(S(N)(=O)=O)c2)CCO1 [Example 108, 2-[(7S)-7-methyl-1,4-oxazepan-4-yl]-N-(2-sulfamoyl-4-pyridyl)-5-(trifluoromethyl)pyridine-3-carboxamide]	191
CC(C)(C)NS(=O)(=O)c1cc(NC(=O)c2cc(Cl)cnc2N2CCCC(F)(F)CC2)ccn1 [Example 109, N-[2-(tert-butylsulfamoyl)-4-pyridyl]-5-chloro-2-(4,4-difluoroazepan-1-yl)pyridine-3-carboxamide]	289
C[C@H]1CN(c2ncc(C(F)(F)F)cc2C(=O)Nc2ccnc(S(N)(=O)=O)c2)CCO1 [Example 110, 2-[(2S)-2-methylmorpholin-4-yl]-N-(2-sulfamoyl-4-pyridyl)-5-(trifluoromethyl)pyridine-3-carboxamide]	505
C[C@@H]1CN(c2ncc(C(F)(F)F)cc2C(=O)Nc2ccnc(S(N)(=O)=O)c2)CCCO1 [Example 111, 2-[(2R)-2-methyl-1,4-oxazepan-4-yl]-N-(2-sulfamoyl-4-pyridyl)-5-(trifluoromethyl)pyridine-3-carboxamide]	633
CC1(O)CCCN(c2ncc(C(F)(F)F)cc2C(=O)Nc2ccnc(S(N)(=O)=O)c2)C1 (stereo not drawn) [Example 112, 2-(3-hydroxy-3-methyl-1-piperidyl)-N-(2-sulfamoyl-4-pyridyl)-5-(trifluoromethyl)pyridine-3-carboxamide]	8410
CC1CCN(c2ncc(C(F)(F)F)cc2C(=O)Nc2ccnc(S(N)(=O)=O)c2)CCC1(F)F (stereo not drawn) [Example 115, 2-(4,4-difluoro-5-methylazepan-1-yl)-N-(2-sulfamoylpyridin-4-yl)-5-(trifluoromethyl)pyridine-3-carboxamide]	1.6
NS(=O)(=O)c1cc(NC(=O)c2cc(C(F)(F)F)cnc2N2CCC[C@H]2C(F)(F)F)ccn1 [Example 126, N-(2-sulfamoylpyridin-4-yl)-5-(trifluoromethyl)-2-[(2S)-2-(trifluoromethyl)pyrrolidin-1-yl]pyridine-3-carboxamide]	21

Results, then the compound that gave them:

IC50 [nM]	Structure (SMILES)
707	NS(=O)(=O)c1cc(NC(=O)c2cc(C(F)(F)F)cnc2N2CC(C(F)(F)F)C2)ccn1 [Example 93, N-(2-sulfamoyl-4-pyridyl)-5-(trifluoromethyl)-2-[3-(trifluoromethyl)azetidin-1-yl]pyridine-3-carboxamide]
1900	NS(=O)(=O)c1cc(NC(=O)c2cc(C(F)(F)F)cnc2N2CC(Oc3ccc(C(F)(F)F)cc3)C2)ccn1 [Example 97, N-(2-sulfamoyl-4-pyridyl)-5-(trifluoromethyl)-2-[3-[4-(trifluoromethyl)phenoxy]azetidin-1-yl]pyridine-3-carboxamide]
2560	NS(=O)(=O)c1cc(NC(=O)c2cc(C(F)(F)F)cnc2N2CCN(CC3CC3)C(=O)C2)ccn1 [Example 99, 2-[4-(cyclopropylmethyl)-3-oxo-piperazin-1-yl]-N-(2-sulfamoyl-4-pyridyl)-5-(trifluoromethyl)pyridine-3-carboxamide]
4630	NS(=O)(=O)c1cc(NC(=O)c2cc(C(F)(F)F)cnc2N2CCN(CC(F)(F)F)CC2)ccn1 [Example 100, N-(2-sulfamoyl-4-pyridyl)-2-[4-(2,2,2-trifluoroethyl)piperazin-1-yl]-5-(trifluoromethyl)pyridine-3-carboxamide]
9330	CC1(C)c2cc(F)ccc2CN1c1ncc(C(F)(F)F)cc1C(=O)Nc1ccnc(S(N)(=O)=O)c1 [Example 113, 2-(6-fluoro-1,1-dimethyl-isoindolin-2-yl)-N-(2-sulfamoyl-4-pyridyl)-5-(trifluoromethyl)pyridine-3-carboxamide]
95	Cc1sc(S(N)(=O)=O)cc1NC(=O)c1cc(C(F)(F)F)cnc1N1CCCCCC1 [Example 114, 2-(azepan-1-yl)-N-(2-methyl-5-sulfamoyl-thiophen-3-yl)-5-(trifluoromethyl)pyridine-3-carboxamide]
220	NS(=O)(=O)c1cc(NC(=O)c2cc(C(F)(F)F)cnc2N2CCC[C@@H]2C(F)(F)F)ccn1 [Example 127, (R)-N-(2-sulfamoylpyridin-4-yl)-5-(trifluoromethyl)-2-(2-(trifluoromethyl)pyrrolidin-1-yl)nicotinamide]
94	NS(=O)(=O)c1cc(NC(=O)c2cc(C(F)(F)F)cnc2N2CCC(C(F)(F)F)C2)ccn1 (stereo not drawn) [Example 128, N-(2-sulfamoylpyridin-4-yl)-5-(trifluoromethyl)-2-[3-(trifluoromethyl)pyrrolidin-1-yl]pyridine-3-carboxamide]
2	CC1CN(c2ncc(C(F)(F)F)cc2C(=O)Nc2ccnc(S(N)(=O)=O)c2)CCCC1(F)F (stereo not drawn) [Example 131, 2-(4,4-difluoro-3-methylazepan-1-yl)-N-(2-sulfamoylpyridin-4-yl)-5-(trifluoromethyl)nicotinamide]
26	NC(=O)c1cc(NC(=O)c2cc(C(F)(F)F)cnc2N2CCCC(F)(F)CC2)ccn1 [Example 137, 4-(2-(4,4-difluoroazepan-1-yl)-5-(trifluoromethyl)nicotinamido)picolinamide]
16	NS(=O)(=O)c1cc(NC(=O)c2cc(C(F)(F)F)cnc2N2CCCCCC2)ccn1 [Example 139, 2-(azepan-1-yl)-N-(2-sulfamoyl-4-pyridyl)-5-(trifluoromethyl)pyridine-3-carboxamide]
